Data on 26 molecules can be found in patent US4963566A, “Benzimidazolyl-sulfinyl-tetrahydroquinolines” (Otsuka Pharmaceutical Co., Ltd., priority 1986, dated 1990).

The assay has as its target T1, H^+ +K^+ ATPase (Sus scrofa, UniProt P19156).
T1 construct: prepared from porcine stomach; from tissue; host or cells: porcine stomach
As to the kind of experiment: H+ +K+ ATPase inhibition (inorganic phosphoric acid release). In kind it is biochemical. Particulars: enzyme prepared from porcine stomach; 30 min with compound at room temperature, pH 6.1; then 30 min at 37° C., pH 7.4, 20 mM KCl. The method, then: H^+ +K^+ ATPase (adenosine triphosphatase) (amount of protein: 10 μg) prepared from porcine stomach was added to a Pipes-TRIS [i.e. 2-amino-2-(hydroxymethyl)-1,3-propanediol] buffer solution (pH 6.1) containing 2 mM of piperazine N,N'-bis(2-ethanesulfonic acid), and the mixture was let stand at room temperature. A test compound was dissolved in dimethyl formamide, and the mixture was added to said H^+ +K^+ ATPase buffer solution so that the final concentration should be 1% and let stand for reaction for 30 minutes at room temperature. Then a 75 mM Pipes-TRIS buffer (1 ml, pH 7.4) (containing 4 mM MgCl2, 4 mM Na2 ATP, and 20 mM KCl) and a 75 mM Pipes-TRIS buffer (1 ml, pH 7.4) (containing 4 mM MgCl2, and 4 mM Na2 ATP) were added to the solution individually to make two kinds of samples and these samples were presented for reaction for 30 minutes at 37° C. 40% Trichloroacetic acid (0.3 ml) was added to each sample to stop the reaction. The solution were subjected to centrifugal separation (3000 rpm) for 10 minutes, and the supernatant was taken off, then the formed inorganic phosphoric acid was measured by Fiske and Subbarow's method [J. Biol. Chem. vol. 66, 375 (1925)]. The value of deducting the amount of inorganic phosphoric acid taken from the Pipes-Tris buffer not containing 20 mM KCl from that taken from the Pipes-Tris buffer containing 20 mM KCl was calculated in terms of unit protein and unit hour to be defined as an activity index of enzyme. Inhibition level (%) in doses of administration was estimated by control values and activity indices of enzyme, and from the obtained inhibition level (%), IC50 (dose of administration of compounds to inhibit in 50%) was obtained.

pIC50: −log10 of the molar value.

T1 sequence (P19156 2-1034 limits assumed): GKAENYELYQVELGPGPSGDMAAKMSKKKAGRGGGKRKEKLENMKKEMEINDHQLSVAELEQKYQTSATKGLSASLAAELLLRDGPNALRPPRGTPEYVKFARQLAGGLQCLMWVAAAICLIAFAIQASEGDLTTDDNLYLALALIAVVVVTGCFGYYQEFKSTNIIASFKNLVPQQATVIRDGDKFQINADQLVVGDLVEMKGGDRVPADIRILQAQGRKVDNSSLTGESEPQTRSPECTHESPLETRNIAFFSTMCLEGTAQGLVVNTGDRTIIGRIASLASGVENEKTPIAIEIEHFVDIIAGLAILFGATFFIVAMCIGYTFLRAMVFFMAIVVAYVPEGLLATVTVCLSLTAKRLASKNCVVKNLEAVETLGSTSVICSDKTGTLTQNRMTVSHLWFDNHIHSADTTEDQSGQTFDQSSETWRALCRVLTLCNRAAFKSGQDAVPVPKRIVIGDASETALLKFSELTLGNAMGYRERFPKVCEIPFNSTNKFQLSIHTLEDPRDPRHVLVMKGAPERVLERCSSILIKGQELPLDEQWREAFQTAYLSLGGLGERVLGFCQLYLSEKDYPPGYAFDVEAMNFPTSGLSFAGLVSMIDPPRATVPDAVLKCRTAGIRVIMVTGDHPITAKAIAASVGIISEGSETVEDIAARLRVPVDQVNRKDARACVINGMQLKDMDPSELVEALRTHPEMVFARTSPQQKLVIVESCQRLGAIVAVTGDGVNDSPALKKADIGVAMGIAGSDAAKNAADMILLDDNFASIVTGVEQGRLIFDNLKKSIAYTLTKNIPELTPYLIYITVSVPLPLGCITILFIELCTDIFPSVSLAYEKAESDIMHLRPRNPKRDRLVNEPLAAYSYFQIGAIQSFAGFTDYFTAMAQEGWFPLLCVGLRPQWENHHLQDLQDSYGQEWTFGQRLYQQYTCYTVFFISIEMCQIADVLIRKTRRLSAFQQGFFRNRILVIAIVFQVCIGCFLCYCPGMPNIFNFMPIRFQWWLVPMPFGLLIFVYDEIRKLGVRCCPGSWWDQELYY
T1 sequence (P18434 whole entry partner): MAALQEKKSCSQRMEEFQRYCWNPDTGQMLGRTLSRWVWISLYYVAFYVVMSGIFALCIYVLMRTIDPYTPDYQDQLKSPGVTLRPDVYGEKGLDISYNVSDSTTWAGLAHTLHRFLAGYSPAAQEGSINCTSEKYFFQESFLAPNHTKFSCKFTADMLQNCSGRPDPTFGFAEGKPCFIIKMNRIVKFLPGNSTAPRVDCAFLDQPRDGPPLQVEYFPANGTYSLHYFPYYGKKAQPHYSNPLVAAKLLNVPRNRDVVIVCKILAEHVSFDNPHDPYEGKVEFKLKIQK

Regarding `CCN1CCCc2cccc(C[S+]([O-])c3nc4ccc(F)cc4[nH]3)c21` (centres unmarked) [Test compound No. 4, 1-ethyl-8-(5-fluoro-2-benzimidazolyl)sulfinylmethyl-1,2,3,4-tetrahydroquinoline], the pIC50 is 6.00.
The value for `CCN1CCCc2cccc(C[S+]([O-])c3nc4ccc(C)cc4[nH]3)c21` (centres unmarked) [Test compound No. 2, 1-ethyl-8-(5-methyl-2-benzimidazolyl)sulfinylmethyl-1,2,3,4-tetrahydroquinoline] was 6.74.
The result for `CCN1CCC(=NO)c2cccc(C[S+]([O-])c3nc4ccccc4[nH]3)c21` (centres unmarked) [Test compound No. 50, 1-ethyl-8-(2-benzimidazolyl)sulfinylmethyl-4-hydroxyimino-1,2,3,4-tetrahydroquinoline] reads 5.33; that for `Cc1ccc2nc([S+]([O-])Cc3cccc4c3N(C)CCC4)[nH]c2c1` (centres unmarked) [Test compound No. 17, 1-methyl-8-(5-methyl-2-benzimidazolyl)sulfinylmethyl-1,2,3,4-tetrahydroquinoline], 6.28; that for `CCN1CCCc2cccc(C[S+]([O-])c3nc4cc(F)c(F)cc4[nH]3)c21` (centres unmarked) [Test compound No. 5, 1-ethyl-8-(5,6-difluoro-2-benzimidazolyl)sulfinylmethyl-1,2,3,4-tetrahydroquinoline], 6.36.
The result for `COc1cc2nc([S+]([O-])Cc3cccc4c3N(C)CCC4)[nH]c2cc1F` (centres unmarked) [Test compound No. 20, 1-methyl-8-(5-fluoro-6-methoxy-2-benzimidazolyl)sulfinylmethyl-1,2,3,4-tetrahydroquinoline] reads 6.48; that for `C=CCNC1CCN(CC)c2c(C[S+]([O-])c3nc4ccc(C)cc4[nH]3)cccc21` (centres unmarked) [Test compound No. 60, 1-ethyl-8-(5-methyl-2-benzimidazolyl)sulfinylmethylmethyl-4-allylamino-1,2,3,4-tetrahydroquinoline], 5.48; that for `CCN1CCCc2cccc(C[S+]([O-])c3nc4ccc(Cl)cc4[nH]3)c21` (centres unmarked) [Test compound No. 8, 1-ethyl-8-(5-chloro-2-benzimidazolyl)sulfinylmethyl-1,2,3,4-tetrahydroquinoline], 6.66.
Regarding `CCN1CCCc2cccc(C[S+]([O-])c3nc4ccccc4[nH]3)c21` (centres unmarked) [Test compound No. 36, 1-ethyl-8-(2-benzimidazolyl)sulfinylmethyl-1,2,3,4-tetrahydroquinoline], the pIC50 was 6.35.
The value for `CCCCN1CCCc2cccc(C[S+]([O-])c3nc4ccc(C)cc4[nH]3)c21` (centres unmarked) [Test compound No. 25, 1-n-butyl-8-(5-methyl-2-benzimidazolyl)sulfinylmethyl-1,2,3,4-tetrahydroquinoline] was 6.48.
The result for `CC1=CCN(C)c2c(C[S+]([O-])c3nc4ccc(C)cc4[nH]3)cccc21` (centres unmarked) [Test compound No. 39, 1,4-dimethyl-8-(5-methyl-2-benzimidazolyl)sulfinylmethyl-1,2-dihydroquinoline] reads 6.89; that for “1,4-dimethyl-8-(5-fluoro-6-methyl-2-benzimidazolyl)sulfinylmethyl-1,2,3,4- tetrahydroquinoline [Test compound No. 30]”, 6.21; that for `CCN1CCC(N(C=O)C2CC2)c2cccc(C[S+]([O-])c3nc4cc(F)c(OC)cc4[nH]3)c21` (centres unmarked) [Test compound No. 65, 1-ethyl-8-(5-fluoro-6-methoxy-2-benzimidazolyl)sulfinylmethyl-4-(N-formyl-N-cyclopropyl)amino-1,2,3,4-tetrahydroquinoline], 5.55.
The result for `CN1CCCc2cccc(C[S+]([O-])c3nc4ccc(F)cc4[nH]3)c21` (centres unmarked) [Test compound No. 15, 1-methyl-8-(5-fluoro-2-benzimidazolyl)sulfinylmethyl-1,2,3,4-tetrahydroquinoline] reads 6.28.
For `CCN1CCC(OC)c2cccc(C[S+]([O-])c3nc4ccccc4[nH]3)c21` (centres unmarked) [Test compound No. 48, 1-ethyl-8-(2-benzimidazolyl)sulfinylmethyl-4-methoxy-1,2,3,4-tetrahydroquinoline], the pIC50 is 5.96.
The result for `CCN1CCCc2cccc(C[S+]([O-])c3nc4cc(OC)c(F)cc4[nH]3)c21` (centres unmarked) [Test compound No. 6, 1-ethyl-8-(5-fluoro-6-methoxy-2-benzimidazolyl)sulfinylmethyl-1,2,3,4-tetrahydroquinoline] reads 6.21; that for `C=CCOC1CCN(CC)c2c(C[S+]([O-])c3nc4ccccc4[nH]3)cccc21` (centres unmarked) [Test compound No. 51, 1-ethyl-8-(2-benzimidazolyl)sulfinylmethyl-4-allyloxy-1,2,3,4-tetrahydroquinoline], 5.54; that for `C=CCN1CCCc2cccc(C[S+]([O-])c3nc4ccc(C)cc4[nH]3)c21` (centres unmarked) [Test compound No. 33, 1-allyl-8-(5-methyl-2-benzimidazolyl)sulfinylmethyl-1,2,3,4-tetrahydroquinoline], 6.24.
As for `COc1ccc2nc([S+]([O-])Cc3cccc4c3N(C)CC=C4C)[nH]c2c1` (centres unmarked) [Test compound No. 40, 1,4-dimethyl-8-(5-methoxy-2-benzimidazolyl)sulfinylmethyl-1,2-dihydroquinoline], the negative logarithm of the IC50 (pIC50) was 6.28.
The result for `CCCCN1CCCc2cccc(C[S+]([O-])c3nc4ccccc4[nH]3)c21` (centres unmarked) [Test compound No. 24, 1-n-butyl-8-(2-benzimidazolyl)sulfinylmethyl-1,2,3,4-tetrahydroquinoline] reads 6.74.
The value for `CCOC(N(C)C1CCN(CC)c2c(C[S+]([O-])c3nc4cc(F)c(OC)cc4[nH]3)cccc21)C(F)(F)F` (centres unmarked) [Test compound No. 69, 1-ethyl-8-(5-fluoro-6-methoxy-2-benzimidazolyl)sulfinylmethyl-4-[N-methyl-N-(2,2,2-trifluoro-1ethoxyethyl)]amino-1,2,3,4-tetrahydroquinoline] was 5.31.
For `CN1CCCc2cccc(C[S+]([O-])c3nc4ccccc4[nH]3)c21` (centres unmarked) [Test compound No. 14, 1-methyl-8-(2-benzimidazolyl)sulfinylmethyl-1,2,3,4-tetrahydroquinoline], the pIC50 was 6.77.
The value for `CCN1CC(CO)Cc2cccc(C[S+]([O-])c3nc4ccccc4[nH]3)c21` (centres unmarked) [Test compound No. 54, 1-ethyl-8-(2-benzimidazolyl)sulfinylmethyl-3-hydroxymethyl-1,2,3,4-tetrahydroquinoline] was 5.92; that for `CN1CCCc2cccc(C[S+]([O-])c3nc4ccc(Cl)cc4[nH]3)c21` (centres unmarked) [Test compound No. 18, 1-methyl-8-(5-chloro-2-benzimidazolyl)sulfinylmethyl-1,2,3,4-tetrahydroquinoline] was 6.70.
The result for `C#CCN1CCCc2cccc(C[S+]([O-])c3nc4ccccc4[nH]3)c21` (centres unmarked) [Test compound No. 26, 1-propargyl-8-(2-benzimidazolyl)sulfinylmethyl-1,2,3,4-tetrahydroquinoline] reads 5.80.
The result for `CCN1CCC(N(C)C(C)=O)c2cccc(C[S+]([O-])c3nc4ccccc4[nH]3)c21` (centres unmarked) [Test compound No. 59, 1-ethyl-8-(2-benzimidazolyl)sulfinylmethyl-4-(N-methyl-N-acetyl)amino-1,2,3,4-tetrahydroquinoline] reads 5.24.

What is called pIC50 is the negative decadic logarithm of the IC50, by convention in mol/L.
